Tests used:
[1] = biological target: Flt-4 (Homo sapiens, UniProt P35916); assay: Flt-4 autophosphorylation ELISA, transfected COS cells; format: cell-based; parameters: expressed in transfected cells; host or cells: COS cells; settings: read-out: Cellular IC50, autophosphorylation
Protocol: The Flt-4 autophosphorylation ELISA utilized COS cells. Cells were seeded at 200,000 cells per well in 6-well plates in DMEM with 10% FBS and grown at 5% CO2 and 37° C. After 24 h growth, cells were transfected with 1 μg/well Flt-4 cDNA, using 3 μl FuGENE-6 (Roche). […] The cell monolayer was washed twice with cold PBS and harvested by scraping into 150 μl ice-cold lysis buffer. Cell lysates were centrifuged at 13,000 g for 15 min, diluted 1:10 in ice-cold PBS, and transferred to clear Streptavidin plates (Pierce) coated with anti-human […] (Flt-4) biotinylated goat IgG (2 μg/well, R&D Biosciences). After washing, anti-Flag M2 mouse IgG-HRP (Sigma 1 to 10,000 dilution) or anti phospho-tyrosine rabbit IgG-HRP (Zymed, 61-5820, 1:10,000) was used to detect total Flt-4 and phosphorylated Flt-4.

[2] = test system: panel of pharmacological targets, including receptors, transporters, and enzymes; assay: NovaScreen panel, overall statements; format: binding; settings: single in vitro concentration of 10 μM
[3] = biological target: T1, panel of pharmacological targets, including receptors, transporters, and enzymes; assay: NovaScreen panel, overall statements; format: binding; settings: muscarinic receptors, α2-adrenergic receptor and dopamine transporter
T1 construct: IC50 values; other: muscarinic receptors, α2-adrenergic receptor and dopamine transporter

[4] = biological target: T2, EphB4 (Homo sapiens, UniProt P54760); assay: EphB4 autophosphorylation ELISA, EphB4/Hep3B cells; format: cell-based; settings: read-out: Cellular IC50, autophosphorylation
T2 construct: expressed in transfected cells; host or cells: Hep3B
Protocol: The EphB4 autophosphorylation ELISA utilized EphB4/Hep3B cells. Cells were seeded at 2×10^4 cells/well onto 96-well microtiter plates (Costar 3904), in MEME (Cellgro) containing 10% FBS (Heat-Inactivated, Hyclone), 1% penicillin-streptomycin (Cellgro) and 450 μg/ml G418 (Invitrogen). The cells were then incubated at 37° C., 5% CO2 for 24 h. Growth media was replaced with serum-free MEME and cells were incubated for an additional 16 h. […] Negative control wells were not treated with growth factor. Following treatment, media was removed, the cell monolayer washed with cold PBS and immediately lysed with cold lysis buffer (50 mM Tris-HCl, pH 8.0, 200 mM NaCl, 0.5% NP-40, 0.2% sodium deoxcholate, 1 mM EDTA, 50 mM NaF, 1 mM sodium pyrophosphate, 1 mM sodium orthovanadate, 2 mM phenylmethylsulfonyl fluoride, 10 μg/ml aprotinin, 5 μg/ml leupeptin and 5 μg/ml pepstatin A). Lysates were centrifuged and incubated in blocked (1% BSA) high-binding 96-well plates (Costar 3925) coated with anti-mouse EphB4 (2.5 μg/ml, R&D Systems). Plates were then incubated with HRP-conjugated anti-phosphotyrosine cocktail (1:10,000, Zymed Laboratories, Inc) followed by the addition of a luminol-based substrate solution. Plates were read using a Victor spectrophotometer (Wallac).

[5] = biological target: T3, Serotonin Transporter (Homo sapiens, UniProt P31645); assay: NovaScreen assay; format: binding
T3 construct: NovaScreen
T3 sequence (P31645 whole entry): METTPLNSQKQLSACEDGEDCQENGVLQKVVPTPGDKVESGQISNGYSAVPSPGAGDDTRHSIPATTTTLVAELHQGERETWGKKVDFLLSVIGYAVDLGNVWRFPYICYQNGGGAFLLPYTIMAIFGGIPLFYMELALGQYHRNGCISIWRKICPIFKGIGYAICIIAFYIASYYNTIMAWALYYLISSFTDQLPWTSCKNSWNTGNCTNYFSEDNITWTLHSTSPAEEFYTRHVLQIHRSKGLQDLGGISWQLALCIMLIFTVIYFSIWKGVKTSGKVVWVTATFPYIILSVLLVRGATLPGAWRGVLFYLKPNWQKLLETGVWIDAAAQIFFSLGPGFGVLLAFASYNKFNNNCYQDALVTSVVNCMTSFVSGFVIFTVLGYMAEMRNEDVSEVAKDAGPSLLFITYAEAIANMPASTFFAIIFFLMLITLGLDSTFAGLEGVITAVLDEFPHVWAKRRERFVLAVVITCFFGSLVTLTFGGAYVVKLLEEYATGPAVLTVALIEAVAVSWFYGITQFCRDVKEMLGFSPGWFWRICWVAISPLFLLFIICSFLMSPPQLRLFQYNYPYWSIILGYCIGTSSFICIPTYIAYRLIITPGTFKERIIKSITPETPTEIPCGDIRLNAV

[6] = biological target: Clk2 (Homo sapiens, UniProt P49760); assay: In vitro kinase inhibition screen; format: biochemical
Protocol: (§1) Further screening was performed using the biochemical assay methods of Example 2. Additional description of the components and concentrations are summarized in Table 8, Table 9, and Table 10, below.

[7] = biological target: CDK5 (Homo sapiens, UniProt Q00535); assay: In vitro kinase inhibition screen; format: biochemical
Sequence of CDK5 (Q00535 whole entry, species assumed): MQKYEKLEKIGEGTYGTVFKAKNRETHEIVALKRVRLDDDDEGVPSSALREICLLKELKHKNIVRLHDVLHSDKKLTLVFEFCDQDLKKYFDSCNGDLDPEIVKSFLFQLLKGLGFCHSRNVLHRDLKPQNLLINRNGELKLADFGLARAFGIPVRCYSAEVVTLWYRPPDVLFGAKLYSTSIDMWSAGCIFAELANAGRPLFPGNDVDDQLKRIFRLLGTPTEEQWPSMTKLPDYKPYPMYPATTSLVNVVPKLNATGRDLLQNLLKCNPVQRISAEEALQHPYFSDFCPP
Sequence of CDK5 (Q15078 whole entry partner, species assumed): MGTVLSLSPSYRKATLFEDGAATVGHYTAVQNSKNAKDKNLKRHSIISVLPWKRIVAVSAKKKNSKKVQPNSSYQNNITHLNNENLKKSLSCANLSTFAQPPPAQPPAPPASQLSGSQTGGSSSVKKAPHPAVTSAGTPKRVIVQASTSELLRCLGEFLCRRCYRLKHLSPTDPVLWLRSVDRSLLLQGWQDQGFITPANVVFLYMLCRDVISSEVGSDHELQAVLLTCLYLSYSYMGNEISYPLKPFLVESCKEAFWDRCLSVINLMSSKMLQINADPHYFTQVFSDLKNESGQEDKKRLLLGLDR
Protocol: as §1

[8] = biological target: PKBα (Homo sapiens, UniProt P31749); assay: In vitro kinase inhibition screen; format: biochemical
Protocol: as §1

[9] = biological target: Rsk2 (Homo sapiens, UniProt P51812); assay: In vitro kinase inhibition screen; format: biochemical
Protocol: as §1

[10] = biological target: PAK2 (Homo sapiens, UniProt Q13177); assay: In vitro kinase inhibition screen; format: biochemical
Protocol: as §1

[11] = biological target: SAPK4 (Homo sapiens, UniProt O15264); assay: In vitro kinase inhibition screen; format: biochemical
Sequence of SAPK4 (O15264 whole entry, species assumed): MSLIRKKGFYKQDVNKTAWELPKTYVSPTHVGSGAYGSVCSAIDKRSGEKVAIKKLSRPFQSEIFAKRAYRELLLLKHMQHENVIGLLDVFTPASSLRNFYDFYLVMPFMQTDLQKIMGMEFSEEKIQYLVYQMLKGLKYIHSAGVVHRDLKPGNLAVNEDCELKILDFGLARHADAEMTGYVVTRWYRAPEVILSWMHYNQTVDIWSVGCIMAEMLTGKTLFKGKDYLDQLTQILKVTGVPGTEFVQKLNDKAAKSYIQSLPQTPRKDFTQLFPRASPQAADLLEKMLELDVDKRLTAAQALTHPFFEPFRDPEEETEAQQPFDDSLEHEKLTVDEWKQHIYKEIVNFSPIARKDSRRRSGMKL
Protocol: as §1

[12] = biological target: Clk1 (Homo sapiens, UniProt P49759); assay: In vitro kinase inhibition screen; format: biochemical
Sequence of Clk1 (P49759 whole entry): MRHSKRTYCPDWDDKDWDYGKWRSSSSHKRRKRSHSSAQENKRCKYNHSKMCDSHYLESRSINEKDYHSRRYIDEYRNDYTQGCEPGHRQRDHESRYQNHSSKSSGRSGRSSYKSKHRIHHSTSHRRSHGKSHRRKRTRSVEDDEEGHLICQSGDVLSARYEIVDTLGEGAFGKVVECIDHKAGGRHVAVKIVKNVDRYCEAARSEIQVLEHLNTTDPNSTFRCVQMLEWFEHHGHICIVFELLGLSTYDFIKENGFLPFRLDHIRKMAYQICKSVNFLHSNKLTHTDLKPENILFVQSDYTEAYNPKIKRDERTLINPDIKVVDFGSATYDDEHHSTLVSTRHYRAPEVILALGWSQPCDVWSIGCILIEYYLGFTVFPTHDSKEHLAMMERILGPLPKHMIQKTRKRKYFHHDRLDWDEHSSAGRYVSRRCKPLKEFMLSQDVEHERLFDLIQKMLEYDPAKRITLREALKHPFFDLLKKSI
Protocol: as §1

[13] = biological target: Yes (Homo sapiens, UniProt P07947); assay: In vitro kinase inhibition screen; format: biochemical
Protocol: as §1

[14] = biological target: CDK7 (Homo sapiens, UniProt P50613); assay: In vitro kinase inhibition screen; format: biochemical
Protocol: as §1

[15] = biological target: IKKβ (Homo sapiens, UniProt O14920); assay: In vitro kinase inhibition screen; format: biochemical
Protocol: as §1

[16] = biological target: CamKII; assay: In vitro kinase inhibition screen; format: biochemical
Protocol: as §1

[17] = biological target: MKK6 (Homo sapiens, UniProt P52564); assay: In vitro kinase inhibition screen; format: biochemical
Sequence of MKK6 (P52564 whole entry, species assumed): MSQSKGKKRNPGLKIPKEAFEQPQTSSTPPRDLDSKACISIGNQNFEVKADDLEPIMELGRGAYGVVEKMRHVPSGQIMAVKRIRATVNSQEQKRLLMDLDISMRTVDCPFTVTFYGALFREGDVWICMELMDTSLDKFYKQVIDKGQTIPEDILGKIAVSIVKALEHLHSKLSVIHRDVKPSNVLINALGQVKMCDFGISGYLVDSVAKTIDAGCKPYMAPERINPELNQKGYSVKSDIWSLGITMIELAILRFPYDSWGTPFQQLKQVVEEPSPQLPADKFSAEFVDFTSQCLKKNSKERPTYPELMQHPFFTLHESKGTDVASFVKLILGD
Protocol: as §1

[18] = biological target: MEK1 (Homo sapiens, UniProt Q02750); assay: In vitro kinase inhibition screen; format: biochemical
Protocol: as §1

[19] = biological target: Syk (Homo sapiens, UniProt P43405); assay: In vitro kinase inhibition screen; format: biochemical
Protocol: as §1

[20] = biological target: SGK (Homo sapiens, UniProt O00141); assay: In vitro kinase inhibition screen; format: biochemical
Protocol: as §1

[21] = biological target: PRAK (Homo sapiens, UniProt Q8IW41); assay: In vitro kinase inhibition screen; format: biochemical
Sequence of PRAK (Q8IW41 whole entry, species assumed): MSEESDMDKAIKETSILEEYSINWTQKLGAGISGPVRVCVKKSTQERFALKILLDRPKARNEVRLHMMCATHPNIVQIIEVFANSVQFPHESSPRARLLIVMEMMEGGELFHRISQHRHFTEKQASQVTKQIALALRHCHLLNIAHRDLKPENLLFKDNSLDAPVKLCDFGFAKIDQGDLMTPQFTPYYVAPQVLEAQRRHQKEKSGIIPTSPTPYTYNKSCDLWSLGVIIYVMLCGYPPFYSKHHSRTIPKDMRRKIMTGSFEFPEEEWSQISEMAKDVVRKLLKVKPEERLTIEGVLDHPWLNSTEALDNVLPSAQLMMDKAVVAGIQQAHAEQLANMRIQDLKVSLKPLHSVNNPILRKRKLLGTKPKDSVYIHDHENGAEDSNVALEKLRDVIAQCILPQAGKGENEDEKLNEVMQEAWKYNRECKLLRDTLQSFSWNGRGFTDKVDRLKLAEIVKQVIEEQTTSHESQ
Protocol: as §1

[22] = biological target: IKKα (Homo sapiens, UniProt O15111); assay: In vitro kinase inhibition screen; format: biochemical
Protocol: as §1

[23] = biological target: CDK1 (Homo sapiens, UniProt P06493); assay: In vitro kinase inhibition screen; format: biochemical
Sequence of CDK1 (P06493 whole entry, species assumed): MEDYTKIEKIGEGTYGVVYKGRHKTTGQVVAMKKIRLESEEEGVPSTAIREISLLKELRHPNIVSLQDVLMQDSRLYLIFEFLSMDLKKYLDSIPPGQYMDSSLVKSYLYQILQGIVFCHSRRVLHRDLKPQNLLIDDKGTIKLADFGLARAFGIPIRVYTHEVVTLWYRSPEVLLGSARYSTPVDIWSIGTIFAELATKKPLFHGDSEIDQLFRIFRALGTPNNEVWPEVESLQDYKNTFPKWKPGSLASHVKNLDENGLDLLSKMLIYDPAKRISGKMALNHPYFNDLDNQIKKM
Sequence of CDK1 (P14635 whole entry partner, species assumed): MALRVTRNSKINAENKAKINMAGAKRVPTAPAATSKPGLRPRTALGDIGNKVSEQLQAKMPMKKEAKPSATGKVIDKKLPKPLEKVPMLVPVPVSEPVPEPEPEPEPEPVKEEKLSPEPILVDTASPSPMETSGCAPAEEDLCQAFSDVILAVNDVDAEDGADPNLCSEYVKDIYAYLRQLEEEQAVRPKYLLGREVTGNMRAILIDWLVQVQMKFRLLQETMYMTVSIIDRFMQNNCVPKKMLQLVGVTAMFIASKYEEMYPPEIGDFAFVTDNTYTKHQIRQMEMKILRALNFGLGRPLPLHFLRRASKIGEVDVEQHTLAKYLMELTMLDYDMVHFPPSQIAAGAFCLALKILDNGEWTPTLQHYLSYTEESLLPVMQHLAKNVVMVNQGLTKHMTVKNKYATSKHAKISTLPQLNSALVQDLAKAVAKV
Protocol: as §1

[24] = biological target: Rsk1 (Homo sapiens, UniProt Q15418); assay: In vitro kinase inhibition screen; format: biochemical
Sequence of Rsk1 (Q15418 whole entry, species assumed): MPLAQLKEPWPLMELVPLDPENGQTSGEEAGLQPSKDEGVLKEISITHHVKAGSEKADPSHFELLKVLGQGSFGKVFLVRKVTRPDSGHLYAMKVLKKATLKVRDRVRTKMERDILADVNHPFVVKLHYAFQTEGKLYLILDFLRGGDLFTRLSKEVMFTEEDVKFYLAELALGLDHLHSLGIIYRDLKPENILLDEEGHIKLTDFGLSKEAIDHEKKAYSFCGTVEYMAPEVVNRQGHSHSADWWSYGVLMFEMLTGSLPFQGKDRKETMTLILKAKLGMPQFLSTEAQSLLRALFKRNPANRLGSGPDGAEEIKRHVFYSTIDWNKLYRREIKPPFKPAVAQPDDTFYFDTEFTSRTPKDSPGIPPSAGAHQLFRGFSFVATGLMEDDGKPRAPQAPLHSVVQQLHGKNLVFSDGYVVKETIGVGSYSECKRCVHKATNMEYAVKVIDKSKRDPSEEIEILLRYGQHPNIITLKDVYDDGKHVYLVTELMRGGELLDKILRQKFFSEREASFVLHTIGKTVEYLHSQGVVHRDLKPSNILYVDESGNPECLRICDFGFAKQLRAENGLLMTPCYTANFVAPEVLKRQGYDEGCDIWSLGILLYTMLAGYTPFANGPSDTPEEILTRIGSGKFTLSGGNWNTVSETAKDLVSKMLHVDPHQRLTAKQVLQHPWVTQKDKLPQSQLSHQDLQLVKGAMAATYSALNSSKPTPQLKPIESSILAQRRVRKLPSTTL
Protocol: as §1

[25] = biological target: p70S6K (Homo sapiens, UniProt P23443); assay: In vitro kinase inhibition screen; format: biochemical
Sequence of p70S6K (P23443 whole entry): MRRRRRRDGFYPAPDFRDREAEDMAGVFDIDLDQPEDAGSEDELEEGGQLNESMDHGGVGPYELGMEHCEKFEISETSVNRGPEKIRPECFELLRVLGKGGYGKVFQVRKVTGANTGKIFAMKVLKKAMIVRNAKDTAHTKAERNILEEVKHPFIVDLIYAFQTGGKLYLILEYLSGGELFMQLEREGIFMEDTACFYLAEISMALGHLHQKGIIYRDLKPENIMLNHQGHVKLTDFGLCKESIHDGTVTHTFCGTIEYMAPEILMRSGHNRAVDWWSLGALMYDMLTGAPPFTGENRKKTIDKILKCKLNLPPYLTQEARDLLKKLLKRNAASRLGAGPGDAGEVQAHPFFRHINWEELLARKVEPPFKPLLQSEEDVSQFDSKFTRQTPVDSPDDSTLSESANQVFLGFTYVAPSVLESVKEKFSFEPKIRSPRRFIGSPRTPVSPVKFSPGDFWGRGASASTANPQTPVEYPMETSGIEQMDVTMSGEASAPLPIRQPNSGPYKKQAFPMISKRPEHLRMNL
Protocol: as §1

For COc1cc2c(Nc3ccc(Cl)c(Cl)c3F)ncnc2cc1OC[C@@H]1C[C@@H]2CN(C)C[C@@H]2C1 [XL-647, N-(3,4-dichloro-2-fluorophenyl)-7-({[(3aR,5r,6aS)-2-methyloctahydrocyclopenta[c]pyrrol-5-yl]methyl}oxy)-6-(methyloxy)quinazolin-4-amine], the IC50 [1] was 90 nM, the “interaction with the panel, in words” value [2] was “interact with very few of the pharmacological targets” and the IC50 [3] was 1000 to 2700 nM. It also gave an IC50 [4] of 3 nM, an IC50 [5] of 188 nM and an inhibition at 10 µM ([5]; read-out: Inhibition, 10 μM XL-647) of 101%. For the same molecule, the IC50 [6] was > 10000 nM, the IC50 [7] was > 1000 nM and the IC50 [8] was > 10000 nM. The IC50 [9] was > 1000 nM, the IC50 [10] was > 1000 nM and the IC50 [11] was > 1000 nM. The IC50 [12] was > 10000 nM, the IC50 [13] was 1.1 nM and the IC50 [14] was > 1000 nM. The IC50 [15] was > 1000 nM, the IC50 [16] was > 1000 nM and the IC50 [17] was > 1000 nM. The IC50 [18] was > 1000 nM, the IC50 [19] was > 1000 nM and the IC50 [20] was > 10000 nM. The IC50 [21] was > 1000 nM, the IC50 [22] was > 1000 nM and the IC50 [23] was > 1000 nM. The IC50 [24] was > 1000 nM, the IC50 ([25]; list in excess of 1 μM) was > 1000 nM and the IC50 ([25]; list in excess of 10 μM) was > 10000 nM.

— patent publication US9364479B2, “Use of a receptor-type kinase modulator for treating polycystic kidney disease” (SYMPHONY EVOLUTION, INC., priority 2010, dated 2016)
